Measurements as given in ChEMBL document CHEMBL1201862, “PubChem BioAssay data set” (2004).
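All cell lines were grown in 96-well plates and treated with compound for 48 hours. GI50 is the concentration that inhibits growth by half.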 Calls of active or inactive are those of the source. No stated cut-off is given here; in the data, active = GI50 up to about 1.1 µM and inactive = higher.

Tests used:
Assay in all cases: NCI-60 cell line screen, 48 h
[1] = system: A498
[2] = system: ACHN
[3] = system: HOP-92
[4] = system: KM-20L2
[5] = system: M19-MEL
[6] = system: Malme-3M
[7] = system: SNB-75
[8] = system: SNB-78
[9] = system: SR
[10] = system: TK-10
[11] = system: XF498
[12] = system: 786-0
[13] = system: DU-145
[14] = system: MCF7
[15] = system: MDA-MB-231
[16] = system: MDA-MB-435
[17] = system: MDA-N
[18] = system: NCI/ADR-RES
[19] = system: PC-3
[20] = system: T47D

| Structure (SMILES) | GI50 [1] | GI50 [2] | GI50 [3] | GI50 [4] | GI50 [5] | GI50 [6] | GI50 [7] | GI50 [8] | GI50 [9] | GI50 [10] | GI50 [11] | GI50 [12] | GI50 [13] | GI50 [14] | GI50 [15] | GI50 [16] | GI50 [17] | GI50 [18] | GI50 [19] | GI50 [20] |
| --- | --- | --- | --- | --- | --- | --- | --- | --- | --- | --- | --- | --- | --- | --- | --- | --- | --- | --- | --- | --- |
| Nc1nnc(N)n1NC(=O)C(=O)Nc1ccc([N+](=O)[O-])cc1 | > 100 µM (inactive) | > 100 µM (inactive) | > 100 µM (inactive) | > 100 µM (inactive) | > 100 µM (inactive) | > 100 µM (inactive) | > 100 µM (inactive) | > 100 µM (inactive) | > 100 µM (inactive) | > 100 µM (inactive) | > 100 µM (inactive) | – | – | – | – | – | – | – | – | – |
| COc1ccc(C2C(C(=O)O)=C(COC(C)=O)Oc3cc4c(cc32)OCO4)cc1 (configuration not stated) | – | > 100 µM (inactive) | > 100 µM (inactive) | > 100 µM (inactive) | > 100 µM (inactive) | > 100 µM (inactive) | > 100 µM (inactive) | > 100 µM (inactive) | – | > 100 µM (inactive) | 40.7 µM (inactive) | – | – | – | – | – | – | – | – | – |
| CCCNC(/C=C/[Si](C)(C)C)CO.CCCNCC(O)/C=C/[Si](C)(C)C (configuration not stated) | > 100 µM (inactive) | > 100 µM (inactive) | 36.9 µM (inactive) | > 100 µM (inactive) | > 100 µM (inactive) | > 100 µM (inactive) | 40.6 µM (inactive) | > 100 µM (inactive) | > 100 µM (inactive) | > 100 µM (inactive) | 22 µM (inactive) | – | – | – | – | – | – | – | – | – |
| O=C1C(Cl)=C(N2CCC[C@H]2CO)C(=O)c2c(O)ccc(O)c21 | > 10 µM (inactive) | 2.03 µM (inactive) | 1.72 µM (inactive) | – | – | 1.7 µM (inactive) | > 10 µM (inactive) | – | 0.592 µM (active) | 2.54 µM (inactive) | – | 2.03 µM (inactive) | 4.38 µM (inactive) | 1.81 µM (inactive) | 2.64 µM (inactive) | 1.82 µM (inactive) | 1.86 µM (inactive) | 2 µM (inactive) | 4.24 µM (inactive) | 2.11 µM (inactive) |
| COC(=O)C1=COC2OC3/C(=C\c4ccc(O)c(OC)c4)C(=O)OC34C=CC1C24 (configuration not stated) | 27.7 µM (inactive) | 15.1 µM (inactive) | 22.5 µM (inactive) | 17.8 µM (inactive) | 14.2 µM (inactive) | 16.5 µM (inactive) | 11.7 µM (inactive) | 15.2 µM (inactive) | 28.8 µM (inactive) | 17.3 µM (inactive) | 3.46 µM (inactive) | – | – | – | – | – | – | – | – | – |
| CCCCOP1(=O)C=CC(Cl)=C(C)C1 (configuration not stated) | – | 19 µM (inactive) | 23.2 µM (inactive) | 22.8 µM (inactive) | 29.7 µM (inactive) | 19.5 µM (inactive) | 23.3 µM (inactive) | – | 15.3 µM (inactive) | 36.6 µM (inactive) | 19.2 µM (inactive) | 22.3 µM (inactive) | – | – | – | – | – | – | – | – |
| COC1C=CC(O)C(CO)O1 (configuration not stated) | – | > 100 µM (inactive) | > 100 µM (inactive) | > 100 µM (inactive) | > 100 µM (inactive) | > 100 µM (inactive) | > 100 µM (inactive) | > 100 µM (inactive) | > 100 µM (inactive) | > 100 µM (inactive) | > 100 µM (inactive) | – | – | – | – | – | – | – | – | – |
| CC1C[C@]2(C[C@@H](C)C(=O)O2)OC2CC3(C)C4CCC5C(C)(C)OC(=O)CC[C@@]56C[C@@]46CC[C@]3(C)C12 (some centres not stated) | > 100 µM (inactive) | > 100 µM (inactive) | > 100 µM (inactive) | – | – | > 100 µM (inactive) | > 100 µM (inactive) | > 100 µM (inactive) | > 100 µM (inactive) | > 100 µM (inactive) | > 100 µM (inactive) | – | – | – | – | – | – | – | – | – |
| COc1cc2cc(C(=O)N3CC(CCl)c4c3cc(N(C)C)c3ccccc43)[nH]c2c(OC)c1OC (configuration not stated) | 0.0123 µM (active) | < 0.01 µM (active) | 0.0417 µM (active) | – | – | 0.0321 µM (active) | < 0.01 µM (active) | – | < 0.01 µM (active) | 0.0108 µM (active) | – | < 0.01 µM (active) | < 0.01 µM (active) | < 0.01 µM (active) | 0.0378 µM (active) | 0.0146 µM (active) | 0.0169 µM (active) | < 0.01 µM (active) | < 0.01 µM (active) | < 0.01 µM (active) |
| Cc1ccc2c(O)cc(-c3cc(C)sc3C)nc2n1 | 4.78 µM (inactive) | 8.13 µM (inactive) | 17.9 µM (inactive) | – | – | 3.56 µM (inactive) | 2.9 µM (inactive) | – | 0.55 µM (active) | 25.1 µM (inactive) | – | 3.93 µM (inactive) | 3.99 µM (inactive) | 2.18 µM (inactive) | 10.4 µM (inactive) | 0.351 µM (active) | 0.455 µM (active) | 1.62 µM (inactive) | 2.55 µM (inactive) | 2.67 µM (inactive) |
| CCCCCCCCCCCC1=C(O)C(=O)C=C(O)C1=O [EMBELIN] | 5.75 µM (inactive) | – | 4.09 µM (inactive) | 7.43 µM (inactive) | – | 5.81 µM (inactive) | 6.31 µM (inactive) | 9.66 µM (inactive) | – | – | – | – | – | 7.64 µM (inactive) | – | – | – | 6.27 µM (inactive) | – | – |
